Reference: patent publication US12697326B2, “Methods of treating hepatic encephalopathy” (SALIX PHARMACEUTICALS, INC., priority 2008, dated 2026)

What was measured:
[1] = tested on: liver transplant patients with HE; assay: Chart review of 39 liver transplant patients with HE Conn scores of 2; assay type: in vivo, human; settings: 24 lactulose, 15 rifaximin
[2] = tested on: critical flicker frequency in subjects with HE; assay: Critical flicker frequency (CFF) test, change from baseline, first study; assay type: in vivo, human
Procedure: The critical flicker frequency (CFF) was assessed for each subject using a specialized CFF instrument. The CFF is the frequency at which the subject observes a constant light transition to a flickering light and is measured in Hertz (Hz). CFF is an objective assessment of mental status.
The CFF was measured on a continuous scale and was the mean of 8 separate fusion-to-flicker transition tests performed in rapid succession.
Mean values and mean changes from baseline in blood ammonia concentration and critical flicker frequency values were collected. Analyses of blood ammonia concentrations and critical flicker frequency values were based upon quantitative values (not qualitative grades). Treatment differences for mean change from baseline in these parameters was estimated using a mixed effects model with fixed effects for time and baseline value.
A critical flicker frequency (CFF) assessment, a recognized quantitative measure of CNS dysfunction, was an efficacy endpoint in the first study. CFF tests utilize the correlation between cerebral processing of oscillatory visual stimuli and CNS impairment due to increased HE severity.^10,11,12,13 This test identifies a frequency at which a flickering light is perceived as steady. A decline in this frequency has been associated with increasing severity of HE. Likewise, elevation in blood ammonia, another endpoint in the first study, is a quantitative assessment associated with the CNS effects underlying overt HE.

[3] = tested on: Conn score in subjects with HE; assay: Level of change from baseline in Conn score by treatment group, first study; assay type: in vivo, human; settings: 550 mg BID, Baseline to EOT
Text: The scale used in the Conn scoring system is provided below. • Grade 0=No personality or behavioral abnormality detected • Grade 1=Trivial lack of awareness, euphoria or anxiety; shortened attention span; impairment of addition or subtraction • Grade 2=Lethargy; disorientation for time; obvious personality change; inappropriate behavior • Grade 3=Somnolence to semi-stupor, responsive to stimuli; confused; gross disorientation; bizarre behavior • Grade 4=Coma; unable to test mental state
Change in mental status was measured by the Conn score (also known as the West Haven score). The Conn score has been widely used as a measure of mental state in HE studies and is based on the criteria of Parsons-Smith as modified by Conn. The scale used in the Conn scoring system is described above.

patients with HE [4] = assay: Retrospective chart review of 145 patients with HE, lactulose then rifaximin; assay type: in vivo, human
Text: Total number of hospitalizations, duration of hospitalizations, HE endpoints, and cost of therapy were compared between the 2 treatment regimens.

patients with HE [5] = settings: 6-month study; rifaximin 1200 mg/day, neomycin 3 g/day; 14 days on, 14 days off per month; cited from earlier work
[6] = tested on: breakthrough overt HE episode in subjects with HE; assay: Breakthrough overt HE episodes, second study (open-label treatment extension); assay type: in vivo, human
Procedure: Unlike the first study, subjects were not required to withdraw from the study after experiencing a breakthrough overt HE episode.
Conn scores and asterixis grades were assessed during the course of the study.
Therefore, the incidence of breakthrough overt HE over time during rifaximin therapy was evaluated. Table 24 presents breakthrough overt HE episodes by total number of HE episodes during the course of the study.

[7] = 550 mg BID, Baseline to Day 140
[8] = Continuing Rifaximin N = 70, second study
[9] = New Rifaximin N = 196, second study
[10] = Rifaximin N = 266 (all rifaximin), second study
[11] = first study placebo subjects crossed over to rifaximin in second study
[12] = second study, all rifaximin, up to 680 days
[13] = second study, continuing rifaximin group, up to 680 days
[14] = second study, new rifaximin group, up to 680 days

Compound: CO[C@H]1/C=C/O[C@@]2(C)Oc3c(C)c(O)c4c(O)c(c5c(nc6cc(C)ccn65)c4c3C2=O)NC(=O)/C(C)=C\C=C\[C@H](C)[C@H](O)[C@@H](C)[C@@H](O)[C@@H](C)[C@H](OC(C)=O)[C@@H]1C [Rifaximin]
- hospitalizations reported for the group [1]: 3
- Change from Baseline in Critical Flicker Frequency Test, Max [2, 7]: 12 Hz
- Change from Baseline in Critical Flicker Frequency Test, Mean [2, 7]: 1.4 Hz
- Change from Baseline in Critical Flicker Frequency Test, Median [2, 7]: 1.5 Hz
- Change from Baseline in Critical Flicker Frequency Test, Min [2, 7]: −15 Hz
- Change from Baseline in Critical Flicker Frequency Test, Max ([2]; 550 mg BID, Baseline to EOT): 11 Hz
- Change from Baseline in Critical Flicker Frequency Test, Mean ([2]; 550 mg BID, Baseline to EOT): 0.9 Hz
- Change from Baseline in Critical Flicker Frequency Test, Median ([2]; 550 mg BID, Baseline to EOT): 0.1 Hz
- Change from Baseline in Critical Flicker Frequency Test, Min ([2]; 550 mg BID, Baseline to EOT): −14 Hz
- Critical Flicker Frequency Test, Max ([2]; 550 mg BID, Day 140): 49 Hz
- Critical Flicker Frequency Test, Min ([2]; 550 mg BID, Day 140): 27 Hz
- Critical Flicker Frequency Test, Max ([2]; 550 mg BID, EOT): 49 Hz
- Critical Flicker Frequency Test, Median ([2]; 550 mg BID, EOT): 37.8 Hz
- Critical Flicker Frequency Test, Min ([2]; 550 mg BID, EOT): 25 Hz
- Mean changes (±SD) in CFF results ([2]; first study, rifaximin group, baseline to end of treatment): 0.945 (±4.75)
- Change from baseline in Conn score, Max [3]: 2
- Change from baseline in Conn score, Mean [3]: −0.1
- Change from baseline in Conn score, Median [3]: 0.0
- Change from baseline in Conn score, Min [3]: −1
- Number of subjects with change from baseline in Conn score of 0 ([3]; n = 139): 101
- Number of subjects with change from baseline in Conn score of 1 ([3]; n = 139): 10
- Number of subjects with change from baseline in Conn score of 2 ([3]; n = 139): 2
- Number of subjects with change from baseline in Conn score of 3 ([3]; n = 139): 0
- Number of subjects with change from baseline in Conn score of −1 ([3]; n = 139): 26
- Percent of subjects with change from baseline in Conn score of 0 ([3]; n = 139): 72.7%
- Percent of subjects with change from baseline in Conn score of 1 ([3]; n = 139): 7.2%
- Percent of subjects with change from baseline in Conn score of 2 ([3]; n = 139): 1.4%
- patients with Conn scores of 3 or 4 at end of treatment period (patients with HE [4]): 6%
- hospitalizations (patients with HE [4]; lactulose 30 mL twice daily then rifaximin 400 mg 3 times/day): 0.5
- efficacy in patients with HE, rifaximin versus neomycin (patients with HE [5]): comparable efficacy
- Subjects with total number of HE episodes during the study: 1, % [6, 8]: (14.3) %
- Subjects with total number of HE episodes during the study: 2, % [6, 8]: (8.6) %
- Subjects with total number of HE episodes during the study: 4, % [6, 8]: (1.4) %
- Subjects with total number of HE episodes during the study: 6, % [6, 8]: (1.4) %
- Subjects with ≥1 breakthrough overt HE episode, % [6, 8]: (25.7) %
- Subjects with total number of HE episodes during the study: 1, % [6, 9]: (17.3) %
- Subjects with total number of HE episodes during the study: 2, % [6, 9]: (6.1) %
- Subjects with total number of HE episodes during the study: 3, % [6, 9]: (2.0) %
- Subjects with total number of HE episodes during the study: 4, % [6, 9]: (0.5) %
- Subjects with total number of HE episodes during the study: 5, % [6, 9]: (0.5) %
- Subjects with total number of HE episodes during the study: 10, % [6, 9]: (1.0) %
- Subjects with ≥1 breakthrough overt HE episode, % [6, 9]: (27.6) %
- Subjects with total number of HE episodes during the study: 1, value in parentheses [6, 10]: (16.5) 90
- Subjects with total number of HE episodes during the study: 2, value in parentheses [6, 10]: (6.8) 90
- Subjects with total number of HE episodes during the study: 3, value in parentheses [6, 10]: (1.5) 90
- Subjects with total number of HE episodes during the study: 4, value in parentheses [6, 10]: (0.8) 90
- Subjects with total number of HE episodes during the study: 5, value in parentheses [6, 10]: (0.4) 90
- Subjects with total number of HE episodes during the study: 6, value in parentheses [6, 10]: (0.4) 90
- Subjects with total number of HE episodes during the study: 10, value in parentheses [6, 10]: (0.8) 90
- Subjects with ≥1 breakthrough overt HE episode, value in parentheses [6, 10]: (27.1) 90
- reduction in risk of breakthrough overt HE during rifaximin treatment vs prior placebo experience [6, 11]: 70%
- subjects with breakthrough overt HE during rifaximin treatment (of 82) [6, 11]: 15
- subjects with 3 or more breakthrough HE episodes ([6]; second study): Ten
- proportion of subjects with breakthrough overt HE [6, 12]: 27.1%
- subjects with breakthrough overt HE (of 266) [6, 12]: 72
- proportion of subjects with breakthrough overt HE [6, 13]: 25.7%
- subjects with breakthrough overt HE (of 70) [6, 13]: 18
- proportion of subjects with breakthrough overt HE [6, 14]: 27.6%
- subjects with breakthrough overt HE (of 196) [6, 14]: 54
